From US8961837B2, “Photosensitive resin composition for color filter and color filter using same” (Cheil Industries Inc., priority 2010, dated 2015)

Experiments:
[1] = Thermogravimetric analysis (TGA) of the dye; format: physicochemical; settings: temperature at which 10% of weight is decomposed (TGA)
Method: (§1) The diaminopyridine azo-based dyes (A-1) according to Examples 1 to 6 are measured regarding various properties such as solubility, maximum absorption wavelength, thermal decomposition temperature, and the like.
(§2) FIG. 1 is a graph showing the spectrum transmittance graph of the diaminopyridine azo-based dye (A-1), and FIG. 2 is a graph showing thermogravimetric analysis (TGA) results.

[2] = Spectrum transmittance / maximum absorption wavelength of the dye; format: physicochemical
Method: as §1, §2

In the case of `CCCCC(CC)CNCCS(=O)(=O)c1ccc(/N=N/c2c(NCC(CC)CCCC)nc(NCC(CC)CCCC)c(C#N)c2C)cc1` (centres unmarked) [A-1], the thermal decomposition temperature [1] is reported as 318 °C and the maximum absorption wavelength [2] is reported as 470 nm.
